Test results: patent US6884799B2, “Non-cross-linking pyrrolo[2,1-c][1,4]benzodiazepines and process thereof” (Council of Scientific and Industrial Research, priority 2003, dated 2005)

Assays:
Type in all cases: cell-based
Breast cancer cell lines = assay: NCI in vitro cytotoxicity, SRB assay, breast panel; settings: Homo sapiens, read-out: Log LC50 (concentration in mol/L causing 50% lethality) (converted)
Experimental: (§1) Biological Activity. In vitro biological activity studies were carried out at National Cancer Institute (USA).
(§2) Cytotoxicity. Compounds Va and Vc were evaluated in vitro against sixty human tumour cells derived from nine cancer types (leukemia, non-small-cell lung, colon, CNS, melanoma, ovarian, prostate, and breast cancer). For each compound, dose response curves for each cell line were measured at a minimum of five concentrations at 10 fold dilutions. A protocol of 48 h continuous drug exposure was used, and a sulforhodamine B (SRB) protein assay was used to estimate cell viability or growth. The concentration causing 50% cell growth inhibition (GI50), total cell growth inhibition (TGI 0% growth) and 50% cell death (LC50, −50% growth) compared with the control was calculated.
(§3) Each cancer type represents the average of six to eight different cancer cell lines.

[1] = tested on: non-small-cell lung cancer cell lines; assay: NCI in vitro cytotoxicity, SRB assay, non-small-cell lung panel; settings: Homo sapiens, read-out: Log LC50 (concentration in mol/L causing 50% lethality) (converted)
Experimental: as §1, §2, §3

[2] = tested on: leukemia cancer cell lines; assay: NCI in vitro cytotoxicity, SRB assay, leukemia panel; settings: Homo sapiens, read-out: Log LC50 (concentration in mol/L causing 50% lethality) (converted)
Experimental: as §1, §2, §3

[3] = tested on: ovarian cancer cell lines; assay: NCI in vitro cytotoxicity, SRB assay, ovarian panel; settings: Homo sapiens, read-out: Log LC50 (concentration in mol/L causing 50% lethality) (converted)
Experimental: as §1, §2, §3

[4] = tested on: sixty human tumour cells derived from nine cancer types; assay: cells; settings: for GI50 / CC50: Homo sapiens, 48 h; for GI50: read-out: Log10 GI50 mean graph midpoint (MG_MID) (converted); for CC50: read-out: Log10 LC50 mean graph midpoint (MG_MID) (converted); for Log10 TGI mean graph midpoint (MG_MID): total cell growth inhibition (0% growth), 48 h continuous drug exposure, SRB
Experimental: as §1, §2

[5] = tested on: prostate cancer cell lines; assay: NCI in vitro cytotoxicity, SRB assay, prostate panel; settings: Homo sapiens, read-out: Log LC50 (concentration in mol/L causing 50% lethality) (converted)
Experimental: as §1, §2, §3

CNS cancer cell lines = assay: NCI in vitro cytotoxicity, SRB assay, CNS panel; settings: Homo sapiens, read-out: Log LC50 (concentration in mol/L causing 50% lethality) (converted)
Experimental: as §1, §2, §3

[6] = tested on: melanoma cancer cell lines; assay: NCI in vitro cytotoxicity, SRB assay, melanoma panel; settings: Homo sapiens, read-out: Log LC50 (concentration in mol/L causing 50% lethality) (converted)
Experimental: as §1, §2, §3

colon cancer cell lines = assay: NCI in vitro cytotoxicity, SRB assay, colon panel; settings: Homo sapiens, read-out: Log LC50 (concentration in mol/L causing 50% lethality) (converted)
Experimental: as §1, §2, §3

renal cancer cell lines = assay: NCI in vitro cytotoxicity, SRB assay, renal panel; settings: Homo sapiens, read-out: Log LC50 (concentration in mol/L causing 50% lethality) (converted)
Experimental: as §1, §2, §3

Row | SMILES | CC50 (Breast cancer cell lines) | CC50 [1] | CC50 [2] | CC50 [3] | cytotoxic / anticancer activity in words [4] | GI50 [4] | CC50 [4] | Log10 TGI mean graph midpoint (MG_MID) [4] | CC50 [5] | CC50 (CNS cancer cell lines) | CC50 [6] | CC50 (colon cancer cell lines) | CC50 (renal cancer cell lines)
1 | COc1cc2c(cc1OCCCOc1cc3c(cc1OC)C(=O)N1CCC[C@H]1CN3)N=C[C@@H]1CCCN1C2=O [Compound Va, 7-Methoxy-8-{3-[7-methoxy-(11aS)-1,2,3,10,11,11a-hexahydro-5H-pyrrolo[2,1-c][1,4]benzodiazepine-5-one-8-yloxy]propoxy}-(11aS)-1,2,3,11a-tetrahydro-5H-pyrrolo[2,1-c][1,4]benzodiazepine-5-one] | 43.7 µM | 38.9 µM | 83.2 µM | 70.8 µM | slightly higher activity | 0.158 µM | 33.1 µM | −5.73 | 83.2 µM | 32.4 µM | 3.55 µM | 25.7 µM | 63.1 µM
2 | COc1cc2c(cc1OCCCCCOc1cc3c(cc1OC)C(=O)N1CCC[C@H]1CN3)N=C[C@@H]1CCCN1C2=O [Compound Vc, 7-Methoxy-8-{5-[7-methoxy-(11aS)-1,2,3,10,11,11a-hexahydro-5H-pyrrolo[2,1-c][1,4]benzodiazepine-5-one-8-yloxy]pentyloxy}-(11aS)-1,2,3,11a-tetrahydro-5H-pyrrolo[2,1-c][1,4]benzodiazepine-5-one] | 89.1 µM | 72.4 µM | 34.7 µM | 97.7 µM | interesting profile of activity and selectivity for various cell lines | 5.13 µM | 70.8 µM | −4.55 | ≥ 100 µM | 81.3 µM | 38 µM | 91.2 µM | 95.5 µM
